In patent publication US20060239913A1, “Peptide conjugate for magnetic resonance imaging” (priority 2003, published 2006):
pIC50: −log10 of the molar value. Values belong to the molecule of their own block, whether it stands above or below them.

Legend:
[1] = tested on: artery slices originating from Watanabe Heritable Hyperlipidemic rabbits; experiment: Ex vivo MRI and Gd quantification on WHHL rabbit artery slices; conditions: for ex vivo MRI enhancement of the sections / amount of Gd in the sections by ICP-MS (mean value): after 1 h; for ex vivo MRI enhancement of the sections: 3 h or 18 h incubation; for amount of Gd in the sections by ICP-MS (mean value): 3 h or 18 h incubation at 5×10^−4 M Gd, no washing
Description: Specimen preparation—Watanabe Heritable Hyperlipidemic rabbits (CAP, Olivet, France), which develop hypercholesterolemia and subsequent atherosclerosis due to a genetic deficiency of LDL receptors, were profoundly anaesthetized. After their sacrifice by exsanguination, the arterial tree, comprising the aortic arch with the beginning of the efferent arteries, as well as the thoracic aorta and the supra-renal abdominal aorta, was removed in one block and flushed with heparinized Krebs-Ringer Bicarbonate buffer (pH=7.4) in order to clean any remaining blood. The arterial specimen was then kept frozen at −20° C.; it was gently and extemporarily unfrozen for experimental purpose.
(§1) Finally, both rabbits and human atherosclerotic segments were cut in exactly 3.0 mm-thick sections, before their contact with the contrast medium and ex vivo imaging.
Ex vivo incubation—All the slices were deposited in a 24-wells culture plate. They were then incubated under stirring at 37° C., in 1.0 ml of Krebs-Ringer Bicarbonate buffer (pH=7.4), Gd-DOTA or compound B (at a Gd concentration of 5×10^−4 M). After pre-determined incubation periods of 1 h, 3 h or 18 h, the slices originating from the WHHL rabbits were either immediately imaged, or subjected to a washing during 30 min, 1 h or 3 h (n=3 for each condition) in 10.0 ml of Krebs-Ringer bicarbonate buffer, with the medium being replaced every hour. Regarding human samples, only the protocol which allowed the best differentiation between the compounds (i.e. an incubation period of 18 h, followed by a washing of 30 min) was applied. Afterwards, all the slices were drained and prepared for ex vivo imaging. Further the protocol was applied both regarding to lesional plaques and not lesional plaques specimens.
Specificity testing—To additionally test the specificity of the compound B uptake, we repeated the ex vivo 18 h-incubation with a new set of WHHL rabbit atherosclerotic slices which were previously incubated during 30 min with the hydroxamate peptide, at a 10 times higher concentration than COMPOUND B (i.e. 5×10^−3 M). The samples were subsequently washed during 30 min, as previously described.
Detection of the contrast media by ex vivo imaging and Gd quantification—For ex vivo MRI, the aortic slices were transferred in a new 24-wells plate and embedded in a semi-solid agar-agar gel (0.8% m/v) at room temperature. Images were performed on a 2.35 T MRI system (Biospec, Bruker, Germany), using a 7 cm inner diameter birdcage coil and a 200 mT/m insert gradient. A 3D T1w SNAP sequence was acquired with following parameters (TR/TE/α=20 ms/4.2 ms/75°, Matrix 256*256*16, resolution 235*175*1000 μm^3, duration 21′49″) to have a compromise between resolution, short duration for screening and sections localization. Finally, the gel was removed from the aortic segments and the Gd contained in each precisely weighed sample was quantified by ICP-MS after acidic mineralization.

ApoE-KO mice = experiment: Biodistribution assay in ApoE-KO mice (Gd by ICP-MS); format: in vivo
Procedure: (§2) Animals—the tissue distribution of compound B, when compared to Gd-DOTA, was performed in ApoE-KO mice in a 100% C57Bl/6 background. The animals were bred and housed in the Animal Experiment Unit of the Center of Molecular and Vascular Biology, Leuven, Belgium, and had free access to food and water.
(§3) ApoE-KO mice of 11-12 weeks were fed a cholesterol-rich Western-type diet (Tecklad, Madison, USA) for 4 months. This model of atherosclerosis was fully characterized: it contained extensive atherosclerotic plaques in the heart and aortic arch, where the plaques occupied 34% of the total lumen area. […] Biodistribution—After the diet period, animals were matched for sex and body weight. compounfd B or Gd-DOTA was administered intravenously via the tail vein (n=7/compound), at a clinical dose of 100 μmol Gd/kg. 60 min post-injection, the animals were anaesthetized and blood was obtained via eye bleeding. The mice were then subjected to a transcardiac perfusion with heparinized saline, in order to clear the intravascular compartment from any residual circulating contrast agent. Muscle and different organs (kidney, liver) were removed, as well as some artery specimens (aortic arch, carotid arteries, thoracic aorta, abdominal aorta and femoral artery). Finally, an aliquot of the blood sample was centrifuged and the Gd^3+ contained in all the collected samples was quantified by induced coupled plasma—mass spectrometry (ICP-MS) after acidic mineralization.

[2] = tested on: atherosclerotic human sections (carotid artery); experiment: Ex vivo MRI and Gd quantification on human carotid endarterectomy sections; conditions: 18 h incubation, 30 min washing
Procedure: Samples of fresh carotid artery were obtained from patients (n=21) undergoing carotid endarterectomy. Specimen consisted of the common carotid artery, as well as the internal and external carotid arteries. The excised plaques were rinsed in ice-cold saline and they were used in the 2-4 hours following surgery.
as §1
Ex vivo incubation—All the slices were deposited in a 24-wells culture plate. […] After pre-determined incubation periods of 1 h, 3 h or 18 h, the slices originating from the WHHL rabbits were either immediately imaged, or subjected to a washing during 30 min, 1 h or 3 h (n=3 for each condition) in 10.0 ml of Krebs-Ringer bicarbonate buffer, with the medium being replaced every hour. […]
Detection of the contrast media by ex vivo imaging and Gd quantification—For ex vivo MRI, the aortic slices were transferred in a new 24-wells plate and embedded in a semi-solid agar-agar gel (0.8% m/v) at room temperature. […] Finally, the gel was removed from the aortic segments and the Gd contained in each precisely weighed sample was quantified by ICP-MS after acidic mineralization.

human MMP-1 [3] = molecular target: T1, human MMP-1 (Homo sapiens, UniProt P03956); conditions: reported value; cited from earlier work
T1 construct: endogenous in cells; host or cells: human rheumatoid synovial fibroblast
T1 sequence (P03956 100-469): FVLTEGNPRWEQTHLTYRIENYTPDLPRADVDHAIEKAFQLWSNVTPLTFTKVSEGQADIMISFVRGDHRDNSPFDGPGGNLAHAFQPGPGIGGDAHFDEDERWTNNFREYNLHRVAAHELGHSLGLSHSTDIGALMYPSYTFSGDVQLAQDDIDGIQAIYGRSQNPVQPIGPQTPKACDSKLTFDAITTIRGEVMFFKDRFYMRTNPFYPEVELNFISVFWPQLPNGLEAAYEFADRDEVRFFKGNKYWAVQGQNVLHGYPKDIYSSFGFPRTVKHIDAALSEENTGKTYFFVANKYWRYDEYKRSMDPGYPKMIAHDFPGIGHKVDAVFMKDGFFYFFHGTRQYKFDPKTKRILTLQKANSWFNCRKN

human MMP-3 [4] = molecular target: T2, human MMP-3 (Homo sapiens, UniProt P08254); conditions: reported value; cited from earlier work
T2 construct: made in house; host or cells: Sf9 insect cells

human MMP-1 [5] = molecular target: T1, human MMP-1; experiment: In vitro MMP inhibition assay (fluorimetric), MMP-1; format: biochemical; conditions: for % inhibition of control values: mean of duplicate; for inhibitory activity on MMP-1 (in words): concentration of 1.0E-05 M
Procedure: (§4) The ability of compound B or the corresponding peptide hydroxamate to inhibit MMP-1, MMP-2 or MMP-3 activity was tested in vitro, on human enzymes. The reaction was based on the formation of a fluorescent compound produced after MMP-cleavage of a substrate (see table 1 for experimental conditions). Briefly, compound B or the peptide alone was added at 3 different concentrations to a buffer containing the MMP to test. For the control sample, the contrast agent or the peptide was replaced by water. After a pre-incubation period of 30 min at 37° C., the fluorescence intensity was measured using a microplate reader (GeminiXS, Molecular Devices), in order to detect any compound interference with the fluorimetric assay (═F1). The enzymatic reaction was then initiated by the addition of the MMP substrate and the mixture was again incubated at 37° C. After a pre-determined time, a second fluorescent measurement was performed (═F2). The enzyme activity was determined by subtracting the signal F1 from F2, and the results were expressed as a percent inhibition of the control enzyme activity.

human MMP-3 [6] = molecular target: T2, human MMP-3; experiment: In vitro MMP inhibition assay (fluorimetric), MMP-3; format: biochemical; conditions: for % inhibition of control values: mean of duplicate
Procedure: as §4

human MMP-2 [7] = molecular target: T3, human MMP-2 (Homo sapiens, UniProt P08253); conditions: reported value; cited from earlier work
T3 construct: endogenous in cells; host or cells: human rheumatoid synovial fibroblast
T3 sequence (P08253 110-660): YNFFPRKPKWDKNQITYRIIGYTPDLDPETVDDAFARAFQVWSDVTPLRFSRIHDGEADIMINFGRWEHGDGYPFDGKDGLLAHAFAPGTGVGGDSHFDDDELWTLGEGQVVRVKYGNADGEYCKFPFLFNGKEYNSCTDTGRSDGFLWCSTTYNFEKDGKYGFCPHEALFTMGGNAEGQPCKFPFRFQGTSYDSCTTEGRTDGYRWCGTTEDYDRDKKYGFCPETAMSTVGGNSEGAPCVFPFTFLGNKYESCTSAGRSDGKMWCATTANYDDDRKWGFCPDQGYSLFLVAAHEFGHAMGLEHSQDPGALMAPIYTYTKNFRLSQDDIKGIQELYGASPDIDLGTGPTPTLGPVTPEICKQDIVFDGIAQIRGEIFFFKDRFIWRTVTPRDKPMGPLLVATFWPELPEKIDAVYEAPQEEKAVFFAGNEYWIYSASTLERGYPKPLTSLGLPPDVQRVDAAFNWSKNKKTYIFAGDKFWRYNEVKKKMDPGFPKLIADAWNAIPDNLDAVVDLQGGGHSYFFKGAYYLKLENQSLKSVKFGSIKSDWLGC

human MMP-2 [8] = molecular target: T3, human MMP-2; experiment: In vitro MMP inhibition assay (fluorimetric), MMP-2; format: biochemical; conditions: for % inhibition of control values: mean of duplicate; for inhibitory activity on MMP-2 (in words): concentration of 1.0E-05 M
Procedure: as §4, with “The” for “The ability of compound B or the corresponding peptide hydroxamate to inhibit MMP-1, MMP-2 or MMP-3 activity was tested in vitro, on human enzymes. The”, “Briefly, compound B or the peptide alone was added at 3 different concentrations to a buffer containing the MMP to test.” left out

[9] = Biodistribution assay in ApoE-KO mice (Gd by ICP-MS); format: in vivo; conditions: C57Bl/6 background, mouse, plasma, iv, 100 μmol Gd/kg, i.v., read-out: half-life of elimination in plasma
Procedure: as §2, §3

T2 sequence (P08254 100-477): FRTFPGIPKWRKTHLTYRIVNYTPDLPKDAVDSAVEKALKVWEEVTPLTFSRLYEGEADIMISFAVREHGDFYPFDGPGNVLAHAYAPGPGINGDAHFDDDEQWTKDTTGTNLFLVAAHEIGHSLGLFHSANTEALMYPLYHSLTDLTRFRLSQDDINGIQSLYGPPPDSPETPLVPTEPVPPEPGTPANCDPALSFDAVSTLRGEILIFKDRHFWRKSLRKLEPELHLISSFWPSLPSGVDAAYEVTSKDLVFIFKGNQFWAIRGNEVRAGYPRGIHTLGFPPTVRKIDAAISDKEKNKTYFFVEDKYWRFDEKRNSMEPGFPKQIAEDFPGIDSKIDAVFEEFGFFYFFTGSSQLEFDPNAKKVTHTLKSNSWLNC

- amount of Gd in the sections by ICP-MS (mean value) [1]: 3-9 nmol/section
- half-life of elimination in plasma (ApoE-KO mice; i.v.): 15 min
Molecule: O=C([O-])CN1CCN(CC(=O)[O-])CCN(CC(=O)O)CCN(CC(=O)[O-])CC1.[Gd+3] [Gd-DOTA, gadoteric acid]
- Gd concentration after first washing step (mean value) ([1]; after 30 min washing): < 0.8 nmol/section
- ex vivo MRI enhancement of the sections [1]: strong, but diffuse, enhancement
- enhancement of atherosclerotic human sections (MRI ex vivo and Gd quantification) [2]: not

- % inhibition of control values (human MMP-1 [5]; MMP-1, test concentration 1.0E−05 M): 46%
- % inhibition of control values (human MMP-1 [5]; MMP-1, test concentration 1.0E−07 M): 10%
- % inhibition of control values (human MMP-1 [5]; MMP-1, test concentration 1.0E−09 M): 9%
- inhibitory activity on MMP-1 (in words) (human MMP-1 [5]): effective
- inhibitory activity on MMP-3 (in words) (human MMP-3 [6]): no activity
- % inhibition of control values (human MMP-3 [6]; MMP-3, test concentration 1.0E−05 M): 8%
- % inhibition of control values (human MMP-3 [6]; MMP-3, test concentration 1.0E−07 M): 4%
- % inhibition of control values (human MMP-3 [6]; MMP-3, test concentration 1.0E−09 M): 0%
- % inhibition of control values (human MMP-2 [8]; MMP-2, test concentration 1.0E−04 M): 94%
- % inhibition of control values (human MMP-2 [8]; MMP-2, test concentration 1.0E−05 M): 68%
- % inhibition of control values (human MMP-2 [8]; MMP-2, test concentration 1.0E−07 M): 5%
- inhibitory activity on MMP-2 (in words) (human MMP-2 [8]): effective
Molecule: p-aminobenzoyl-Gly-Pro-D-Leu-D-Ala-NHOH [Peptide]
- pIC50 (human MMP-1 [3]): 6.00
- pIC50 (human MMP-3 [4]): 3.82
- pIC50 (human MMP-2 [7]): 4.52

- amount of Gd in the sections by ICP-MS (mean value) [1]: 5-11 nmol/section
- inhibitory activity on MMP-1 (in words) (human MMP-1 [5]): effective
- inhibitory activity on MMP-2 (in words) (human MMP-2 [8]): effective
Molecule: CC(C)C[C@@H](NC(=O)[C@@H]1CCCN1C(=O)CNC(=O)c1ccc(NC(=S)Nc2ccc(CCC(C(=O)O)N3CCN(CC(=O)O)CCN(CC(=O)O)CCN(CC(=O)O)CC3)cc2)cc1)C(=O)N[C@@H](C)C(=O)NO (some centres unmarked) [Compound B]
- ex vivo MRI enhancement after inhibition/competition with free peptide ([1]; 30 min preliminary incubation with free peptide 5×10^−3 M, then 18 h incubation, 30 min washing): very faint enhancement
- ex vivo MRI enhancement of the sections [1]: strong but more delineated enhancement
- mean Gd concentration after washing ([1]; incubated 3 h or 18 h, after 30 min and 1 h of washing): 1-8 nmol/section
- half-life [9]: 15 min
- concentration in the arterial wall compared to Dotarem (ApoE-KO mice; artery specimen, 60 min post-injection, p<0.01): 3-3.5 times
- enhancement of atherosclerotic human sections (MRI ex vivo and Gd quantification) [2]: able to enhance
